For assay [1], the system named is IL-8 production in SW1353 human chondrosarcoma cells. Kind of assay: glucocorticoid inhibition of IL-1 induced IL-8 production in human chondrosarcoma cells. Type of assay: cell-based. Conditions: 20 ng/ml IL-1 beta, 24 hours after IL-1 addition, ELISA, read-out: IC50, inhibition of IL-8 expression. As for the experimental part:
(§1) This assay, the glucocorticoid inhibition of IL-1 (Interleukin-1) induced MMP-1 (Matrix Metalloproteinase-1) and IL-8 (Interleukin-8) production in human chondrosarcoma cells, is conducted as follows: SW1353 human chondrosarcoma cells (obtained from ATCC) from passage 12 through passage 19 are used in a 96 well format assay. Cells are plated at confluence into 96 well plates in DMEM (Dulbecco's Modified Eagle Medium) with 10% fetal bovine serum and incubated at 37° C., 5% CO2. After 24 hours, serum containing media is removed and replaced with 200 ul/well DMEM containing 1 mg/L insulin, 2 g/L lactalbumin hydrosylate, and 0.5 mg/L ascorbic acid and returned to incubation at 37° C., 5% CO2. […] IL-8 production is assessed using the Quantikine human IL-8 ELISA kit from R & D Systems (D8050) on samples diluted 60-fold in RD5P Calibrator Diluent, following the manufacturer's protocol. The percent of the average IL-1 control is determined for the average of each of the triplicate samples following subtraction of the average signal from untreated cells. IC50's are determined from log linear plots of the percent of control versus the concentration of inhibitor. […] MMP-1 production is assessed via the Bio-Trak MMP-1 ELISA kit from Amersham (RPN2610) on 100 ul of neat sample following the manufacturer's protocol. […]

Assay [2] has as its system MMP-1 production in SW1353 human chondrosarcoma cells. The assay is described as follows: glucocorticoid inhibition of IL-1 induced MMP-1 production in human chondrosarcoma cells. Type of assay: cell-based. As to conditions: 20 ng/ml IL-1 beta, 72 hours after IL-1 addition, ELISA, read-out: IC50, inhibition of MMP1 expression. As for the experimental part:
as §1
(ELISA stands for enzyme-linked immunosorbent assay.)

Data on 1 compound can be found in patent US6852719B2, “Glucocorticoid receptor modulators” (Pfizer Inc., priority 2000, dated 2005).

By IC50 is commonly meant the concentration needed to halve the response being measured. For the compound `C[C@@H]1C[C@H]2[C@@H]3CCC4=CC(=O)C=C[C@]4(C)[C@@]3(F)[C@@H](O)C[C@]2(C)[C@@]1(O)C(=O)CO` [Dexamethasone, (11β, 16α)-9-fluoro-11,17,21-trihydroxy-16-methylpregna-1,4-diene-3,20-dione], the IC50 in assay [1] and in assay [2] was 5 nM throughout.
